Measured values reported in patent publication US20050182252A1, “Novel 2'-C-methyl nucleoside derivatives” (priority 2004, published 2005).
Entries after “also recorded” stand apart in the source; their conditions may differ. Where a name gives a salt, the structure may show the parent alone. Each block holds one compound with its values, some of them ahead of it.

Assays:
[1] = set-up: species or system C57BL/6 mice; settings: in vivo; for Liver NTP AUC: mouse
Description: The liver specificity of the compound 19 prodrug was compared relative to the parent nucleoside, 2′-C-methylguanosine, and for compound 21.1 prodrug relative to its parent nucleoside, 2′-C-methyladenosine, by measuring the generation of NTP in the liver compared to nucleoside in the plasma.
Compound 19 or 2′-C-methylguanosine were administered intraperitoneally to C57BL/6 mice at a dose of 30 mg/kg based on nucleoside equivalents (30 mg/kg 2′-C-methylguanosine and 53.27 mg/kg compound 19). Compound 21.1 or 2′-C-methyladenosine were administered intravenously to C57BL/6 mice at dose of about 5.5 mg/kg nucleoside equivalents (5.5 mg/kg 2′-C-methyladenosine and 10 mg/kg compound 21.1). Plasma concentrations of 2′-C-methylguanosine, compound 19, 2′-C-methyladenosine, and compound 21.1 were determined by HPLC-UV and the liver concentrations of the 5′-triphosphate of 2′-C-methylguanosine and 2′-C-methyladenosine were measured by LC-MS using the standard ion-pairing chromatography method for triphosphate as described in Example E. Conventional SAX HPLC-UV could not differentiate between endogenous GTP and 2′-C-methylguanosine triphosphate. Since an authentic standard of 2′-C-methylguanosine triphosphate was not available, the liver concentrations of the nucleotide were approximated as described in Example E.

HCV = assay: HCV-infected human liver slice assay (HCV RNA in culture medium); assay type: cell-based; settings: for Log10 decrease in viral RNA from control at 48-72 h: HCV RNA in culture medium of HCV-infected human liver slices; for HCV RNA levels in the liver slice culture media versus control, untreated slices: in words, treatment for 72 h
Description: Inhibition of HCV replication in human liver tissue was evaluated using the following assay.
Liver from a brain-dead HCV antibody-positive human patient was perfused with ice-cold Viaspan (Dupont Pharmaceutical) preservation solution and received on ice in Viaspan.
Precision-cut liver slices of ˜200-250 μm thickness and […] diameter were prepared and cultured in Waymouth's cell culture medium (Gibco, Inc.) that was supplemented with 10% fetal bovine serum and 10 mL/L Fungi-Bact at 37° C., and gassed with carbogen (95% O2, 5% CO2) at 0.75 liters/min. Tissue slices were maintained in culture for 72 h. Cell culture medium containing test compound in solution was changed on a daily basis.
At appropriate times of liver slice incubation, liver slices and medium were collected for analysis of HCV RNA (tissue and medium) and nucleotide levels (NTP). All collected media and tissue slices were maintained in liquid N2 until analysis.
Medium and tissue samples were analyzed for HCV RNA levels according to published procedures (Bonacini et. al., 1999) which utilize an automated, multicycle, polymerase chain reaction (PCR)-based technique. This assay has a lower limit of detection for HCV RNA of 100 viral copies/ml.

SMILES: C[C@@]1(O)[C@H](O)[C@@H](CO)O[C@H]1n1cnc2c(=O)[nH]c(N)nc21 [2′-C-methylguanosine, reference compound]
Liver Targeting Index (Liver/Plasma) ([1]; C57BL/6, mouse, ip, 30 mg/kg): 0.87
Log10 decrease in viral RNA from control at 48-72 h (HCV; 0.25 μM compound): 0.51 Log10
Log10 decrease in viral RNA from control at 48-72 h (HCV; 2.5 μM compound): 1.74 Log10
Log10 decrease in viral RNA from control at 48-72 h (HCV; 25 μM compound): 1.48 Log10
HCV RNA levels in the liver slice culture media versus control, untreated slices (HCV): decreased

SMILES: C[C@@]1(O)[C@H](O)[C@@H](CO)O[C@H]1n1cnc2c(N)ncnc21 [2′-C-methyladenosine, reference compound]
Plasma Nucleoside AUC ([1]; C57BL/6, mouse, iv, 5.5 mg/kg): 26.8 µM·h
Liver NTP AUC ([1]; iv, 5.5 mg/kg): 119 nmol·h/g

SMILES: C[C@@]1(O)[C@H](O)[C@@H](CO[P@@]2(=O)O[C@H](c3ccccc3)C[C@H](c3ccccc3)O2)O[C@H]1n1ccc2c(N)ncnc21 (as salt: trifluoroacetic acid salt) [Compound 16.18, 4-amino-7-(trans-5′-O-[4,6-cis-diphenyl-2-oxo-1,3,2-dioxaphosphorinan-2-yl]-2′-C-methyl-beta-D-ribofuranosyl)-7H-pyrrolo[2,3-d]pyrimidine trifluoroacetic acid salt]
melting point: > 220 °C

SMILES: C[C@@]1(O)[C@H](O)[C@@H](COP2(=O)OCC[C@@H](c3ccccc3Cl)O2)O[C@H]1n1ccc2c(N)ncnc21 (stereo partly drawn) [Compound 16.14, 4-amino-7-(cis-5′-O-[4-(2-chlorophenyl)-2-oxo-1,3,2-dioxaphosphorinan-2-yl]-2′-C-methyl-beta-D-ribofuranosyl)-7H-pyrrolo[2,3-d]pyrimidine]
melting point: 187 to 190 °C

SMILES: C[C@@]1(O)[C@H](O)[C@@H](CO[P@@]2(=O)OCC[C@@H](c3ccncc3)O2)O[C@H]1n1ccc2c(N)ncnc21 [Compound 16.7]
melting point: 183 to 185 °C

SMILES: C[C@@]1(O)[C@H](O)[C@@H](CO[P@]2(=O)OCC[C@H](c3ccncc3)O2)O[C@H]1n1ccc2c(N)ncnc21 [Compound 16.30, 4-amino-7-(cis-5′-O-[4-(R)-(pyridin-4-yl)-2-oxo-1,3,2-dioxaphosphorinan-2-yl]-2′-C-methyl-beta-D-ribofuranosyl)-7H-pyrrolo[2,3-d]pyrimidine]
melting point: 132 to 136 °C

The next lines start with results.

Liver Targeting Index (Liver/Plasma) ([1]; C57BL/6, mouse, ip, 30 mg/kg): 26.2
Prodrug Improvement (Fold) ([1]; C57BL/6, mouse, ip, 30 mg/kg): 30 Fold
SMILES: C[C@@]1(O)[C@H](O)[C@@H](CO[P@]2(=O)OCC[C@H](c3cccc(Cl)c3)O2)O[C@H]1n1cnc2c(=O)[nH]c(N)nc21 (relative stereo) [Compound 19, cis-5′-O-[4-(3-Chlorophenyl)-2-oxo-1,3,2-dioxaphosphorinan-2-yl]-2′-C-methyl-guanosine]
Log10 decrease in viral RNA from control at 48-72 h (HCV; 0.25 μM compound): 1.27 Log10
Log10 decrease in viral RNA from control at 48-72 h (HCV; 1 μM compound): 1.61 Log10
Log10 decrease in viral RNA from control at 48-72 h (HCV; 2.5 μM compound): 1.70 Log10
Log10 decrease in viral RNA from control at 48-72 h (HCV; 25 μM compound): 1.72 Log10
HCV RNA levels in the liver slice culture media versus control, untreated slices (HCV): decreased; also recorded: more effective than treatment with the nucleoside

Liver NTP AUC ([1]; iv, 5.5 mg/kg): 502 nmol·h/g
SMILES: C[C@@]1(O)[C@H](O)[C@@H](COP2(=O)OCC[C@@H](c3cccc(Cl)c3)O2)O[C@H]1n1cnc2c(N)ncnc21 (stereo partly drawn) [Compound 21.1, cis-5′-O-[4-(S)-(3-chlorophenyl)-2-oxo-1,3,2-dioxaphosphorinan-2-yl]-2′-C-beta-methyl-adenosine trifluoroacetic acid salt]

melting point: 110 to 113 °C
SMILES: C[C@@]1(O)[C@H](O)[C@@H](COP2(=O)OC3CCCCC3[C@@H](c3ccccc3)O2)O[C@H]1n1ccc2c(N)ncnc21 (stereo partly drawn) [Compound 16.42, 4-amino-7-(cis-5′-O-[4-phenyl-5,6-tetramethylene-2-oxo-1,3,2-dioxaphosphorinan-2-yl]-2′-C-methyl-beta-D-ribofuranosyl)-7H-pyrrolo[2,3-d]pyrimidine]

melting point: 153 to 156 °C
SMILES: C[C@@]1(O)[C@H](O)[C@@H](COP2(=O)OCC[C@@H](c3cccc(C#N)c3)O2)O[C@H]1n1cnc2c(N)ncnc21 (stereo partly drawn) [Compound 21.2, cis-5′-O-[4-(3-cyanophenyl)-2-oxo-1,3,2-dioxaphosphorinan-2-yl]-2′-C-beta-methyl-adenosine]

melting point: 153 °C
SMILES: C[C@@]1(O)[C@H](O)[C@@H](COP2(=O)OCCC(c3cccc(Cl)c3)O2)O[C@H]1n1cnc2c(N)ncnc21 (stereo partly shown) [Compound 18, 5′-O-[4-(3-chlorophenyl)-2-oxo-1,3,2-dioxaphosphorinan-2-yl]-2′-C-methyladenosine]
